According to patent US6815421B1, “Polypeptides for use in ameliorating effects of aging in mammals” (Osteopharm Inc., priority 2001, dated 2004):

Assay: Body weight and DEXA body composition in aging intact and ovariectomized rats treated with polypeptide
Format: in vivo, female Sprague-Dawley rats
Conditions: for increase in bone mineral content / increase in body fat content: DEXA
Procedure: Experiments were conducted using female Sprague-Dawley rats that were about 5 months old at the beginning of the experiments. The rats were obtained from Vivarium of the University of Toronto, Mississauga, Ontario, Canada.
The rats were housed in pairs in either a standard shoebox cage 15 cm in height (low cage) or a cage with 22 cm height (tall cage). Humidity was maintained at 50%; temperature 22° C.; dark/light cycle of 12 hours. The rats were fed Standard Purina Rat Chow (unlimited daily supply) and tap water ad libitum.
Ovariectomies were performed under general isofluorane anaesthesia. A 1.5 cm dorsal midline incision was made. The skin and subcutaneous tissue were separated by blunt dissection. A small incision was made on either side in the posterior abdominal muscle wall (approximately 0.5 cm) to expose the ovaries. The ovaries were removed together with the proximal ends of the Fallopian tubes after the ligation of the ovarian arteries. The wounds in the abdominal muscle wall were not stitched. The dorsal skin wound was closed by three surgical wound clips. Tamgesic (0.2 ml) was given subcutaneously for the relief of pain immediately after the operation.
Body weight measurements were made by direct weighing with an electronic balance (to 0.01 g) and by DEXA measurement, Instrument: Hologic 4500A with program for regional measurement for small animals. The animals were scanned supine under general isofluorane anaesthesia. The whole body was scanned including the whole tail. The weights for the mineral content, the fat content and the lean body mass were summed to obtain total body weight.
Non-treated (control) animals were injected subcutaneously daily with 400 μL of 20 mM sodium acetate (pH 4.5) 5 days per week. Treated animals were injected subcutaneously with 300 nmoles per kg of body weight of the test polypeptide (SEQ ID NO:1) in 400 μL of 20 mM sodium acetate (pH 4.5) daily five days per week. The treatment period was nine months. The material, chemically synthesized, was obtained from the Protein DNA Core facility of Queen's University, Kingston, Ontario, Canada. Purification, by HPLC, indicated the test compound to be at least 95% pure.
DEXA measurements were evaluated as an indication of body composition. Through the attenuation of X-ray energy DEXA measurements provide an indication of the mass of various body tissues. In the Hologic DEXA instrument, the program measures the mass of bone tissue, fat and lean body mass (largely muscle mass). The sum of these measured masses represents total body mass. If this proposition is correct, then the total body mass measured by DEXA and measured directly by balance will be the same. Over the course of these experiments, 677 paired measurements of the body weight were made using the two methods. The results obtained (FIG. 1) indicate that there is a close relationship between the DEXA measurements and the measurements. It was thus concluded that body composition could be assessed using DEXA measurements.
Eight groups of rats were treated as follows:
Ovariectomies were performed at the age of 5 months. The ovariectomized animals were allowed to lose bone for two months following ovariectomy before the treatment began. A baseline measurement was made immediately prior to operation. Another pretreatment baseline measurement was made at the beginning of treatment, i.e. two months after ovariectomization. Measurements were made approximately monthly thereafter. At the end of the experiments, all animals were sacrificed by carbon dioxide narcosis.
Procedures were carried out according to the following schedule: […]

## Xaa1-Thr-GIn-Glu-His-Thr-Ala-Glu-Cys-Xaa10, where Xaa1 is N-acetyl arginine and Xaa10 is lysinamide (Ac-RTQEHTAECK-NH2) [SEQ ID NO:1, 10-mer, protected at both ends]
All groups of rats (intact and ovariectomized, treated and untreated), 10-month experimental period, FIGS. 6A to 7B
  change in lean body mass: relatively small change
Intact rats, FIG. 8
  increase in bone mineral content: attenuation of the increase
Intact rats, vs untreated (control) rats, reduction greatest in tall cages, FIG. 4
  increase in body fat content: reduced
Intact rats, tall and low cages, 300 nmoles per kg s.c. daily five days per week, vs untreated, FIG. 2
  age-related gain in total body weight: lower age-related gain
Intact rats, tall and low cages, vs untreated, FIGS. 10 and 11
  change in BMC/BW ratio with time: changed much less
Intact rats, tall and low cages, vs untreated, FIGS. 14 and 15
  change in LBM/BW ratio with time: changed much less
Ovariectomized rats compared with intact rats, FIGS. 14 to 17
  attenuating effect on change in LBM/BW ratio over time: greater for intact rats than it was for ovariectomized rats
Ovariectomized rats housed in low cages, FIG. 5
  increase in body fat content: less so
Ovariectomized rats housed in taller cages, FIG. 5
  increase in body fat content: significantly smaller increase
Ovariectomized rats, FIG. 9
  increase in bone mineral content: attenuation of the increase
Ovariectomized rats, tall and low cages, 300 nmoles per kg s.c. daily five days per week, vs untreated, FIG. 3
  overall weight gain: relative decrease in overall weight gain
Ovariectomized rats, tall and low cages, compared with intact rats, FIGS. 12 and 13
  attenuating effect on decrease in BMC/BW ratio with time: less pronounced
